# Test system: winter barley (Hordeum vulgare)
# Assay: Test D pre/postemergence
# Type: in vivo
# Settings: scale 0 to 100 (100 = complete control)
# Outline: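 Formulation: non-phytotoxic solvent mix + surfactant; applied pre-emergence to seeds and post-emergence to 1–4 leaf plants (2–18 cm). Growth chamber 15–25 d; visual comparison with controls, 0 = no effect to 100 = complete control.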
Compound,"Plant response rating, Barley (Postemergence, 125 g ai/ha)","Plant response rating, Barley (Postemergence, 250 g ai/ha)","Plant response rating, Barley (Preemergence, 125 g ai/ha)","Plant response rating, Barley (Preemergence, 250 g ai/ha)","Plant response rating, Barley (Postemergence, 62 g ai/ha)","Plant response rating, Barley (Preemergence, 62 g ai/ha)"
Nc1nc(C2CC2)nc(C=O)c1Br [Compound 26],45,50,25,35,–,–
COC(=O)c1nc(C2CC2C)nc(N)c1Br (stereo not shown) [Compound 28],40,40,25,45,20,10
COC(=O)c1nc(C2CC2)nc(NO)c1Br [Compound 35],65,70,45,45,65,40
CCOC(=O)Cc1nc(C2CC2)nc(N=CN(C)C)c1Br [Compound 33],45,45,35,45,45,10

# From patent US8802597B2, “Herbicidal pyrimidines” (E I du Pont de Nemours and Company, priority 2003, dated 2014)
